Tested on: T47D
Experiment: Cytotoxicity against human T47D cells assessed as growth inhibition at 10 uM after 48 hrs by SRB assay
Format: functional
Details: read-out: GI

With C=CCn1c(C)nc2ccc(Nc3nc(Nc4ncccn4)nc4ccccc34)cc21 the inhibition of growth at 10 µM was 40%.

— ChEMBL document CHEMBL3112450, “Synthesis and in vitro antitumor evaluation of primary amine substituted quinazoline linked benzimidazole” (Bioorg Med Chem Lett, 2014)
